Source: ChEMBL document CHEMBL4190273, “Mushroom-Derived Indole Alkaloids” (J Nat Prod, 2017)
≈ marks a conversion by molar mass, not a printed value. *1 amine or outer side, *2 acyl side, *3 side chain or, on linkers, in order; H or OH if unused. Where a SMILES comes first, the peptide text is derived from it. [ ]: non-standard residue; d: D form. X1 = C[C@@H]([C@H](C)OC(=O)CC(C)(C)O)[C@@H](C(=O)[*:2])N(C)[*:1]; X5 = O=C([C@@H]1C[C@@]2(O)c3ccccc3N(O)[C@H]2N1[*:1])[*:2]; X6 = CC(=O)O[C@@H](C)[C@H](C)[C@@H](C(=O)[*:2])N(C)[*:1]; X3 = O=C([C@@H]1C[C@@]2(O)c3ccccc3N[C@H]2N1[*:1])[*:2]; X7 = CC(=O)O[C@@H](C(=O)[*:2])N(C)[*:1]; NMeVal(β-OH) = CN[C@H](C(=O)O)C(C)(C)O; X2 = CC(=O)O[C@H](C(=O)[*:2])N(C)[*:1]; NMeI = CC[C@H](C)[C@H](NC)C(=O)O; X4 = CN([C@H](O)C(=O)[*:2])[*:1]; NMeV = CN[C@H](C(=O)O)C(C)C; Sar = CNCC(=O)O

Assays:
Meloidogyne incognita = assay: Nematicidal activity against Meloidogyne incognita; format: functional
[1] = Toxicity in ip dosed mouse; format: organism-based; conditions: in vivo
Staphylococcus aureus = assay: Antibacterial activity against Staphylococcus aureus R-209 assessed as diameter of inhibition zone at 50 ug measured after 24 hrs by agar diffusion method; format: functional; conditions: R-209, 24 h, read-out: DIZ
[2] = test system: Corynebacterium glutamicum; assay: Antibacterial activity against Corynebacterium lilium assessed as diameter of inhibition zone at 50 ug measured after 24 hrs by agar diffusion method; format: functional; conditions: read-out: DIZ
Bacillus subtilis [3] = assay: Antibacterial activity against Bacillus subtilis IAM 1609 assessed as diameter of inhibition zone at 50 ug measured after 24 hrs by agar diffusion method; format: functional; conditions: IAM 1609, 24 h, read-out: DIZ
Bacillus subtilis [4] = assay: Antibacterial activity against Bacillus subtilis IFO-12732 assessed as diameter of inhibition zone at 50 ug measured after 24 hrs by agar diffusion method; format: functional; conditions: IFO-12732, 24 h, read-out: DIZ
Mus musculus = assay: Antithrombotic activity in ICR mouse assessed as inhibition of platelet aggregation at 20 mg/kg, po measured after 1 hr relative to control; format: functional
[5] = test system: Mycobacterium tuberculosis; assay: Antimycobacterial activity against Mycobacterium tuberculosis H37Ra; format: functional
[6] = test system: Human immunodeficiency virus 1; assay: Antiviral activity against HIV1 3B infected in human C8166 cells assessed as inhibition of virus-induced syncytia formation after 3 days; format: functional, organism-based; conditions: Human immunodeficiency virus 1, 3B, C8166, 72 h
[7] = Therapeutic Index, ratio of CC50 for human C8166 cells to EC50 for HIV1 3B infected in human C8166 cells; format: toxicity, cell-based; conditions: HIV-1 3B infected C8166 cells, read-out: Ratio CC50/EC50

`CC[C@H](C)[C@@H]1NC(=O)[C@H](C(C)C)N(C)C(=O)[C@@H]2C[C@@]3(O)c4ccccc4N(O)[C@H]3N2C(=O)CN(C)C(=O)[C@H]([C@@H](C)CC)N(C)C(=O)[C@H](C(C)C)NC(=O)[C@@H](OC(C)=O)N(C)C(=O)[C@H]([C@@H](C)[C@H](C)OC(=O)CC(C)(C)O)N(C)C(=O)[C@H](C(C)(C)O)N(C)C(=O)CN(C)C(=O)[C@H](C(C)C)N(C)C(=O)[C@H](C(C)C)N(C)C1=O` (cyclo(I[NMeV][NMeV][Sar][NMeVal(β-OH)][X1][X2]V[NMeI][Sar][X5][NMeV])) gave an LD90 (Meloidogyne incognita) of 2 to 5 µg/mL.

Work on `CC[C@H](C)[C@@H]1NC(=O)CNC(=O)[C@@H]2Cc3c([nH]c4cc(O)ccc34)[S+]([O-])C[C@H](NC(=O)CNC1=O)C(=O)N[C@@H](CC(N)=O)C(=O)N1C[C@H](O)C[C@H]1C(=O)N[C@@H]([C@@H](C)[C@@H](O)CO)C(=O)N2` (some centres undefined) yielded an LD50 [1] of 0.2 to 0.5 mg/kg.

Work on `CC(=O)N[C@@H](Cc1c[nH]c2ccccc12)C(=O)N[C@H](C(=O)NC(C)(C)C(=O)NC(C)(C)C(=O)N[C@@H](C)C(=O)N[C@@H](CCC(N)=O)C(=O)N[C@@H](C)C(=O)NC(C)(C)C(=O)N[C@@H](CO)C(=O)NC(C)(C)C(=O)N[C@@H](C)C(=O)N[C@@H](CC(C)C)C(=O)NC(C)(C)C(=O)N[C@@H](CCC(N)=O)C(=O)N[C@H](CO)CC(C)C)C(C)C` (HELM PEPTIDE1{[ac].W.V.[Aib].[Aib].A.Q.A.[Aib].S.[Aib].A.L.[Aib].Q.[CC(C)C[C@@H](CO)N[*:1]]}$$$$V2.0) yielded a zone of inhibition at 50 µg/disc (Staphylococcus aureus) of 13 to 18 mm, a zone of inhibition at 50 µg/disc [2] of 13 to 18 mm and a zone of inhibition at 50 µg/disc (Bacillus subtilis [3]) of 13 to 18 mm. The zone of inhibition at 50 µg/disc (Bacillus subtilis [4]) was 13 to 18 mm.

`CC[C@@](C)(NC(=O)C(C)(C)NC(=O)[C@@H](NC(=O)[C@H](Cc1c[nH]c2ccccc12)NC(C)=O)C(C)C)C(=O)N[C@@H](C)C(=O)N[C@@H](CCC(N)=O)C(=O)N[C@@H](C)C(=O)NC(C)(C)C(=O)N[C@@H](CO)C(=O)NC(C)(C)C(=O)N[C@@H](C)C(=O)N[C@@H](CC(C)C)C(=O)NC(C)(C)C(=O)N[C@@H](CCC(N)=O)C(=O)N[C@H](CO)CC(C)C` gave a zone of inhibition at 50 µg/disc (Staphylococcus aureus) of 13 to 18 mm, a zone of inhibition at 50 µg/disc [2] of 13 to 18 mm and a zone of inhibition at 50 µg/disc (Bacillus subtilis [3]) of 13 to 18 mm. The zone of inhibition at 50 µg/disc (Bacillus subtilis [4]) was 13 to 18 mm.

For `CC[C@H](C)[C@@H]1NC(=O)[C@H](C(C)C)N(C)C(=O)[C@@H]2C[C@@]3(O)c4ccccc4N(O)[C@H]3N2C(=O)CN(C)C(=O)[C@H]([C@@H](C)CC)N(C)C(=O)[C@H](C(C)C)NC(=O)[C@@H](OC(C)=O)N(C)C(=O)[C@H]([C@@H](C)[C@H](C)OC(C)=O)N(C)C(=O)[C@H](C(C)(C)O)N(C)C(=O)CN(C)C(=O)[C@H](C(C)C)N(C)C(=O)[C@H](C(C)C)N(C)C1=O` (cyclo(I[NMeV][NMeV][Sar][NMeVal(β-OH)][X6][X2]V[NMeI][Sar][X5][NMeV])), the LD90 (Meloidogyne incognita) was 2 to 5 µg/mL.

With `CC[C@H](C)[C@@H]1NC(=O)[C@H](C(C)C)N(C)C(=O)[C@@H]2C[C@@]3(O)c4ccccc4N(O)[C@H]3N2C(=O)CN(C)C(=O)[C@H]([C@@H](C)CC)N(C)C(=O)[C@H](C(C)C)NC(=O)CN(C)C(=O)[C@H]([C@@H](C)CC)N(C)C(=O)[C@H](C(C)(C)O)N(C)C(=O)CN(C)C(=O)[C@H](C(C)C)N(C)C(=O)[C@H](C(C)C)N(C)C1=O` (HELM PEPTIDE1{I.[meV].[meV].[Sar].[CN([C@H](C(=O)[*:2])C(C)(C)O)[*:1]].[meI].[Sar].V.[meI].[Sar].[O=C([C@@H]1C[C@@]2(O)c3ccccc3N(O)[C@H]2N1[*:1])[*:2]].[meV]}$PEPTIDE1,PEPTIDE1,1:R1-12:R2$$$V2.0) the LD90 (Meloidogyne incognita) was 2 to 5 µg/mL.

`N[C@@H](Cc1c[nH]c2ccccc12)C(=O)NCC(=O)N[C@@H](CS)C(=O)O` (H-Trp-Gly-Cys-OH) showed an inhibition in vivo at 20 mg/kg (Mus musculus) of 83.3%.

Work on `CC[C@H](C)[C@@H]1NC(=O)[C@H](C(C)C)N(C)C(=O)[C@@H]2C[C@@]3(O)c4ccccc4N[C@H]3N2C(=O)CN(C)C(=O)[C@H]([C@@H](C)CC)N(C)C(=O)[C@H](C(C)C)NC(=O)[C@@H](O)N(C)C(=O)[C@H]([C@@H](C)[C@H](C)OC(=O)CC(C)(C)O)N(C)C(=O)[C@H](C(C)(C)O)N(C)C(=O)CN(C)C(=O)[C@H](C(C)C)N(C)C(=O)[C@H](C(C)C)N(C)C1=O` (cyclo(I[NMeV][NMeV][Sar][NMeVal(β-OH)][X1][X4]V[NMeI][Sar][X3][NMeV])) yielded an LD90 (Meloidogyne incognita) of 2 to 5 µg/mL.

With `CC[C@H](C)[C@@H]1NC(=O)[C@H](C(C)C)N(C)C(=O)[C@H](Cc2c[nH]c3ccccc23)NC(=O)CN(C)C(=O)[C@H]([C@@H](C)CC)N(C)C(=O)[C@H](C(C)C)NC(=O)CN(C)C(=O)[C@H]([C@@H](C)CC)N(C)C(=O)[C@H](C(C)C)N(C)C(=O)CN(C)C(=O)[C@H](C(C)C)N(C)C(=O)[C@H](C(C)C)N(C)C1=O` (HELM PEPTIDE1{I.[meV].[meV].[Sar].[meV].[meI].[Sar].V.[meI].[Sar].W.[meV]}$PEPTIDE1,PEPTIDE1,1:R1-12:R2$$$V2.0) the LD90 (Meloidogyne incognita) was 2 to 5 µg/mL.

`C=CC(C)(C)c1[nH]c2c(CC=C(C)C)cc(CC=C(C)C)cc2c1C[C@H]1NC(=O)[C@@H](C)NC1=O` showed an MIC [5] of 170 µM (≈ 78.4 µg/mL).

Compound `CC[C@H](C)[C@@H]1NC(=O)CNC(=O)[C@@H]2Cc3c([nH]c4cc(O)ccc34)[S+]([O-])C[C@H](NC(=O)CNC1=O)C(=O)N[C@@H](CC(N)=O)C(=O)N1C[C@H](O)C[C@H]1C(=O)N[C@@H]([C@@H](C)[C@H](C)O)C(=O)N2` (some centres undefined) has an LD50 [1] of 0.2 to 0.5 mg/kg.

For `O=C(O)c1cc2c([nH]c3ccccc32)c(-c2ccc(CO)o2)n1` [FLAZINE], the EC50 [6] was 2360 nM and the selectivity ratio [7] was 12.1.

Work on `CC[C@H](C)[C@@H]1NC(=O)[C@H](C(C)C)N(C)C(=O)[C@@H]2C[C@@]3(O)c4ccccc4N[C@H]3N2C(=O)CN(C)C(=O)[C@H]([C@@H](C)CC)N(C)C(=O)[C@H](C(C)C)NC(=O)[C@@H](OC(C)=O)N(C)C(=O)[C@H]([C@@H](C)[C@H](C)OC(=O)CC(C)(C)O)N(C)C(=O)[C@H](C(C)(C)O)N(C)C(=O)CN(C)C(=O)[C@H](C(C)C)N(C)C(=O)[C@H](C(C)C)N(C)C1=O` (cyclo(I[NMeV][NMeV][Sar][NMeVal(β-OH)][X1][X2]V[NMeI][Sar][X3][NMeV])) yielded an LD90 (Meloidogyne incognita) of 2 to 5 µg/mL.

For `CC[C@H](C)[C@@H]1NC(=O)[C@H](C(C)C)N(C)C(=O)[C@@H]2C[C@@]3(O)c4ccccc4N(O)[C@H]3N2C(=O)CN(C)C(=O)[C@H]([C@@H](C)CC)N(C)C(=O)[C@H](C(C)C)NC(=O)[C@@H](O)N(C)C(=O)[C@H]([C@@H](C)CC)N(C)C(=O)[C@H](C(C)(C)O)N(C)C(=O)CN(C)C(=O)[C@H](C(C)C)N(C)C(=O)[C@H](C(C)C)N(C)C1=O` (cyclo(I[NMeV][NMeV][Sar][NMeVal(β-OH)][NMeI][X4]V[NMeI][Sar][X5][NMeV])), the LD90 (Meloidogyne incognita) was 2 to 5 µg/mL.

In the case of `CC[C@H](C)[C@@H]1NC(=O)CNC(=O)[C@@H]2Cc3c([nH]c4cc(O)ccc34)[S+]([O-])C[C@H](NC(=O)CNC1=O)C(=O)N[C@@H](CC(=O)O)C(=O)N1C[C@H](O)C[C@H]1C(=O)N[C@@H]([C@@H](C)[C@@H](O)CO)C(=O)N2` (some centres undefined), the LD50 [1] is reported as 0.2 to 0.5 mg/kg.

`CC[C@H](C)[C@@H]1NC(=O)[C@H](C(C)C)N(C)C(=O)[C@@H]2C[C@@]3(O)c4ccccc4N[C@H]3N2C(=O)CN(C)C(=O)[C@H]([C@@H](C)CC)N(C)C(=O)[C@H](C(C)C)NC(=O)CN(C)C(=O)[C@H]([C@@H](C)CC)N(C)C(=O)[C@H](C(C)(C)O)N(C)C(=O)CN(C)C(=O)[C@H](C(C)C)N(C)C(=O)[C@H](C(C)C)N(C)C1=O` (HELM PEPTIDE1{I.[meV].[meV].[Sar].[CN([C@H](C(=O)[*:2])C(C)(C)O)[*:1]].[meI].[Sar].V.[meI].[Sar].[O=C([C@@H]1C[C@@]2(O)c3ccccc3N[C@H]2N1[*:1])[*:2]].[meV]}$PEPTIDE1,PEPTIDE1,1:R1-12:R2$$$V2.0) showed an LD90 (Meloidogyne incognita) of 2 to 5 µg/mL.

`CC[C@H](C)[C@@H]1NC(=O)[C@H](C(C)C)N(C)C(=O)[C@@H]2C[C@@]3(O)c4ccccc4N[C@H]3N2C(=O)CN(C)C(=O)[C@H]([C@@H](C)CC)N(C)C(=O)[C@H](C(C)C)NC(=O)[C@H](OC(C)=O)N(C)C(=O)[C@H]([C@@H](C)[C@H](C)OC(C)=O)N(C)C(=O)[C@H](C(C)(C)O)N(C)C(=O)CN(C)C(=O)[C@H](C(C)C)N(C)C(=O)[C@H](C(C)C)N(C)C1=O` (cyclo(I[NMeV][NMeV][Sar][NMeVal(β-OH)][X6][X7]V[NMeI][Sar][X3][NMeV])) showed an LD90 (Meloidogyne incognita) of 2 to 5 µg/mL.
